Laboratory results as given in the NIST ThermoML archive (doi:10.1007/s10765-010-0768-y).
± gives the expanded uncertainty stated by the source.

Legend:
[1] = 101 kPa, Liquid, Pycnometric method
[2] = xn = mol fraction of the nth substance listed; settings: 101 kPa, Liquid, Pycnometric method, x2 = 0

| Structure (SMILES) | mass density ([1]; 288.15 K) [kg/m3] | mass density ([1]; 293.15 K) [kg/m3] | mass density ([1]; 298.15 K) [kg/m3] | mass density ([1]; 303.15 K) [kg/m3] | mass density ([1]; 308.15 K) [kg/m3] | mass density ([1]; 313.15 K) [kg/m3] | mass density ([1]; 318.15 K) [kg/m3] | mass density ([2]; 288.15 K) [kg/m3] | mass density ([2]; 293.15 K) [kg/m3] | mass density ([2]; 298.15 K) [kg/m3] | mass density ([2]; 303.15 K) [kg/m3] | mass density ([2]; 308.15 K) [kg/m3] | mass density ([2]; 313.15 K) [kg/m3] | mass density ([2]; 318.15 K) [kg/m3] |
| --- | --- | --- | --- | --- | --- | --- | --- | --- | --- | --- | --- | --- | --- | --- |
| Cc1ccccc1C [1,2-dimethylbenzene] | 884.09 ± 0.22 | 879.83 ± 0.21 | 875.57 ± 0.22 | 871.31 ± 0.23 | 867.05 ± 0.24 | 862.79 ± 0.25 | 858.53 ± 0.26 |  |  |  |  |  |  |  |
| Cc1ccccc1C [1,2-dimethylbenzene] + C=CC(=O)OCCCC |  |  |  |  |  |  |  | 884.09 ± 0.22 | 879.83 ± 0.21 | 875.57 ± 0.22 | 871.31 ± 0.23 | 867.05 ± 0.24 | 862.79 ± 0.25 | 858.53 ± 0.26 |
| Cc1cc(C)cc(C)c1 [1,3,5-trimethylbenzene] | 869.28 ± 0.24 | 865.37 ± 0.23 | 861.45 ± 0.24 | 857.54 ± 0.25 | 853.63 ± 0.26 | 849.71 ± 0.27 | 845.8 ± 0.28 |  |  |  |  |  |  |  |
| Cc1cc(C)cc(C)c1 [1,3,5-trimethylbenzene] + C=CC(=O)OCCCC |  |  |  |  |  |  |  | 869.28 ± 0.24 | 865.37 ± 0.23 | 861.45 ± 0.24 | 857.54 ± 0.25 | 853.63 ± 0.26 | 849.71 ± 0.27 | 845.8 ± 0.28 |
| Cc1cccc(C)c1 [1,3-dimethylbenzene] | 868.59 ± 0.22 | 864.31 ± 0.21 | 860.02 ± 0.22 | 855.74 ± 0.23 | 851.45 ± 0.24 | 847.17 ± 0.25 | 842.88 ± 0.26 |  |  |  |  |  |  |  |
| Cc1cccc(C)c1 [1,3-dimethylbenzene] + C=CC(=O)OCCCC |  |  |  |  |  |  |  | 868.59 ± 0.22 | 864.31 ± 0.21 | 860.02 ± 0.22 | 855.74 ± 0.23 | 851.45 ± 0.24 | 847.17 ± 0.25 | 842.88 ± 0.26 |
| Cc1ccc(C)cc1 [1,4-dimethylbenzene] | 865.52 ± 0.22 | 861.17 ± 0.2 | 856.82 ± 0.21 | 852.47 ± 0.22 | 848.12 ± 0.23 | 843.77 ± 0.24 | 839.42 ± 0.25 |  |  |  |  |  |  |  |
| Cc1ccc(C)cc1 [1,4-dimethylbenzene] + C=CC(=O)OCCCC |  |  |  |  |  |  |  | 865.52 ± 0.22 | 861.17 ± 0.2 | 856.82 ± 0.21 | 852.47 ± 0.22 | 848.12 ± 0.23 | 843.77 ± 0.24 | 839.42 ± 0.25 |
| c1ccccc1 [benzene] | 884.3 ± 0.22 | 878.95 ± 0.2 | 873.61 ± 0.21 | 868.26 ± 0.22 | 862.9 ± 0.23 | 857.56 ± 0.24 | 852.23 ± 0.25 |  |  |  |  |  |  |  |
| c1ccccc1 [benzene] + C=CC(=O)OCCCC |  |  |  |  |  |  |  | 884.3 ± 0.22 | 878.95 ± 0.2 | 873.61 ± 0.21 | 868.26 ± 0.22 | 862.9 ± 0.23 | 857.56 ± 0.24 | 852.23 ± 0.25 |
| C=CC(=O)OCCCC [butyl 2-propenoate] | 903.6 ± 0.27 | 898.85 ± 0.26 | 894.1 ± 0.27 | 889.35 ± 0.28 | 884.6 ± 0.29 | 879.85 ± 0.3 | 875.1 ± 0.31 |  |  |  |  |  |  |  |
| Cc1ccccc1 [toluene] | 871.79 ± 0.21 | 867.08 ± 0.2 | 862.36 ± 0.21 | 857.64 ± 0.22 | 852.93 ± 0.23 | 848.21 ± 0.24 | 843.49 ± 0.25 |  |  |  |  |  |  |  |
| Cc1ccccc1 [toluene] + C=CC(=O)OCCCC |  |  |  |  |  |  |  | 871.79 ± 0.21 | 867.08 ± 0.2 | 862.36 ± 0.21 | 857.64 ± 0.22 | 852.93 ± 0.23 | 848.21 ± 0.24 | 843.49 ± 0.25 |
